{
  "source": "PubChem BioAssay AID256",
  "about": "(DTP/NCI, 2004)",
  "test_system": "CD2F1 mice, L1210 leukemia ip, survival T/C",
  "assay": "NCI In Vivo Anticancer Drug Screen. Data for tumor model L1210 Leukemia (intraperitoneal) in CD2F1 (CDF1) mice",
  "conditions": "endpoint: mean survival time, higher = longer survival",
  "how_it_was_run": "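Mice carrying a transplanted tumor received test compound or vehicle alone. The value is the measurement in the treated group divided by that in the vehicle-treated control group.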",
  "key": {"[1]": {"conditions": "dose: 12.5 mg/kg/injection, schedule: Q01DX009 (ip), vehicle: water"}, "[2]": {"conditions": "dose: 25.0 mg/kg/injection, schedule: Q01DX009 (ip), vehicle: water"}, "[3]": {"conditions": "dose: 100.0 mg/kg/injection, schedule: Q01DX009 (ip), vehicle: saline with Tween-80"}, "[4]": {"conditions": "dose: 100.0 mg/kg/injection, schedule: Q04DX003 (ip), vehicle: saline with Tween-80"}, "[5]": {"conditions": "dose: 200.0 mg/kg/injection, schedule: Q01DX009 (ip), vehicle: saline with Tween-80"}, "[6]": {"conditions": "dose: 200.0 mg/kg/injection, schedule: Q04DX003 (ip), vehicle: saline with Tween-80"}, "[7]": {"conditions": "dose: 400.0 mg/kg/injection, schedule: Q01DX009 (ip), vehicle: saline with Tween-80"}, "[8]": {"conditions": "dose: 400.0 mg/kg/injection, schedule: Q04DX003 (ip), vehicle: saline with Tween-80"}, "[9]": {"conditions": "dose: 100.0 mg/kg/injection, schedule: Q04DX003 (ip), vehicle: saline"}, "[10]": {"conditions": "dose: 12.5 mg/kg/injection, schedule: Q04DX003 (ip), vehicle: saline with Tween-80"}},
  "note": "Several values for one entry are separate records, joined by “and”; a condition that tells them apart may be missing. Equal entries are not always repeated. Inconclusive results and toxic doses are left out.",
  "data": [
    {"smiles": "NNC(=O)c1ncn(C2OC(CO)C(O)C2O)c1C(=O)NN", "note": "(configuration not stated)", "values": [
      {"measurement": "T/C", "setting": "dose: 12.5 mg/kg/injection, schedule: Q01DX005 (ip), vehicle: water", "value": "103 % of control"},
      {"measurement": "T/C", "setting": "dose: 25.0 mg/kg/injection, schedule: Q01DX005 (ip), vehicle: water", "value": "101 % of control"},
      {"measurement": "T/C", "setting": "dose: 50.0 mg/kg/injection, schedule: Q01DX005 (ip), vehicle: water", "value": "95 % of control"},
      {"measurement": "T/C", "setting": "dose: 100.0 mg/kg/injection, schedule: Q01DX005 (ip), vehicle: water", "value": "103 % of control"},
      {"measurement": "T/C", "setting": "dose: 200.0 mg/kg/injection, schedule: Q01DX005 (ip), vehicle: water", "value": "97 % of control"}
    ]},
    {"smiles": "Cc1cccnc1Br", "values": [
      {"measurement": "T/C", "setting": "[1]", "value": "95 % of control"},
      {"measurement": "T/C", "setting": "[2]", "value": "103 % of control"},
      {"measurement": "T/C", "setting": "dose: 50.0 mg/kg/injection, schedule: Q01DX009 (ip), vehicle: water", "value": "95 % of control"},
      {"measurement": "T/C", "setting": "dose: 100.0 mg/kg/injection, schedule: Q01DX009 (ip), vehicle: water", "value": "95 % of control"},
      {"measurement": "T/C", "setting": "dose: 200.0 mg/kg/injection, schedule: Q01DX009 (ip), vehicle: water", "value": "88 % of control"}
    ]},
    {"smiles": "OC(c1cc2ccc(C(F)(F)F)cc2c2cc(C(F)(F)F)ccc12)C1CCCCN1", "note": "(configuration not stated)", "values": [
      {"measurement": "T/C", "setting": "dose: 9.4 mg/kg/injection, schedule: Q01DX009 (ip), vehicle: saline", "value": "101 % of control"},
      {"measurement": "T/C", "setting": "dose: 18.8 mg/kg/injection, schedule: Q01DX009 (ip), vehicle: saline", "value": "102 % of control"},
      {"measurement": "T/C", "setting": "dose: 37.5 mg/kg/injection, schedule: Q01DX009 (ip), vehicle: saline", "value": "96 % of control"}
    ]},
    {"smiles": "O=C1c2ccccc2C(=O)N1C1C=CC=CC=C1", "values": [
      {"measurement": "T/C", "setting": "[3]", "value": "95 % of control"},
      {"measurement": "T/C", "setting": "[4]", "value": "104 % of control"},
      {"measurement": "T/C", "setting": "[5]", "value": "93 % of control"},
      {"measurement": "T/C", "setting": "[6]", "value": "97 % of control"},
      {"measurement": "T/C", "setting": "[7]", "value": "96 % of control"},
      {"measurement": "T/C", "setting": "[8]", "value": "97 % of control"}
    ]},
    {"smiles": "CCOC(=O)c1ccc2c(ccc[n+]2C)c1", "values": [
      {"measurement": "T/C", "setting": "dose: 37.5 mg/kg/injection, schedule: Q01DX009 (ip), vehicle: saline with Tween-80", "value": "112 % of control"},
      {"measurement": "T/C", "setting": "dose: 75.0 mg/kg/injection, schedule: Q01DX009 (ip), vehicle: saline with Tween-80", "value": "107 % of control"},
      {"measurement": "T/C", "setting": "dose: 150.0 mg/kg/injection, schedule: Q01DX009 (ip), vehicle: saline with Tween-80", "value": "103 % of control"}
    ]},
    {"smiles": "c1nc(N2CC2)c2cnn(C3CCCCO3)c2n1", "note": "(configuration not stated)", "values": [
      {"measurement": "T/C", "setting": "dose: 25.0 mg/kg/injection, schedule: Q04DX003 (ip), vehicle: saline", "value": "96 % of control"},
      {"measurement": "T/C", "setting": "dose: 50.0 mg/kg/injection, schedule: Q04DX003 (ip), vehicle: saline", "value": "103 % of control"},
      {"measurement": "T/C", "setting": "[9]", "value": "100 % of control"}
    ]},
    {"smiles": "O=CC(Br)C(Br)c1ccccc1", "note": "(configuration not stated)", "values": [
      {"measurement": "T/C", "setting": "dose: 6.25 mg/kg/injection, schedule: Q01DX009 (ip), vehicle: saline with Tween-80", "value": "98 % of control"},
      {"measurement": "T/C", "setting": "dose: 6.25 mg/kg/injection, schedule: Q04DX003 (ip), vehicle: saline with Tween-80", "value": "113 % of control"},
      {"measurement": "T/C", "setting": "dose: 12.5 mg/kg/injection, schedule: Q01DX009 (ip), vehicle: saline with Tween-80", "value": "98 % of control"},
      {"measurement": "T/C", "setting": "[10]", "value": "98 % of control"},
      {"measurement": "T/C", "setting": "dose: 25.0 mg/kg/injection, schedule: Q01DX009 (ip), vehicle: saline with Tween-80", "value": "104 % of control"},
      {"measurement": "T/C", "setting": "dose: 25.0 mg/kg/injection, schedule: Q04DX003 (ip), vehicle: saline with Tween-80", "value": "102 % of control and 104 % of control"},
      {"measurement": "T/C", "setting": "dose: 50.0 mg/kg/injection, schedule: Q01DX009 (ip), vehicle: other", "value": "111 % of control"}
    ]},
    {"smiles": "O=C=NC(c1ccccc1)(c1ccccc1)c1ccccc1", "values": [
      {"measurement": "T/C", "setting": "[4]", "value": "95 % of control and 99 % of control"},
      {"measurement": "T/C", "setting": "[6]", "value": "103 % of control and 104 % of control"},
      {"measurement": "T/C", "setting": "[8]", "value": "97 % of control"}
    ]},
    {"smiles": "O=S(=O)(NC(=S)Nc1ccc(Cl)cc1)c1ccccc1", "values": [
      {"measurement": "T/C", "setting": "[3]", "value": "93 % of control"},
      {"measurement": "T/C", "setting": "[5]", "value": "109 % of control"}
    ]},
    {"smiles": "COc1ccccc1N1C(=O)CSC1=S", "values": [
      {"measurement": "T/C", "setting": "[4]", "value": "96 % of control"},
      {"measurement": "T/C", "setting": "[6]", "value": "93 % of control"},
      {"measurement": "T/C", "setting": "[8]", "value": "106 % of control"}
    ]},
    {"smiles": "COc1cc2c(cc1OC)C(C)=NCC2", "values": [
      {"measurement": "T/C", "setting": "[9]", "value": "104 % of control"}
    ]},
    {"smiles": "Cc1ccc(S(=O)(=O)Nc2ccccc2-c2nc3cc(Cl)ccc3c(=O)o2)cc1", "values": [
      {"measurement": "T/C", "setting": "[4]", "value": "87 % of control"},
      {"measurement": "T/C", "setting": "[6]", "value": "98 % of control"},
      {"measurement": "T/C", "setting": "[8]", "value": "98 % of control"}
    ]},
    {"smiles": "O=C1c2c(O)ccc(O)c2C(=O)c2c(NCCO)ccc(NCCO)c21", "values": [
      {"measurement": "T/C", "setting": "[3]", "value": "103 % of control"},
      {"measurement": "T/C", "setting": "[5]", "value": "110 % of control"},
      {"measurement": "T/C", "setting": "[7]", "value": "113 % of control"}
    ]},
    {"smiles": "O=[n+]1ccn2cc3ccccc3cc2c1", "values": [
      {"measurement": "T/C", "setting": "[10]", "value": "86 % of control"},
      {"measurement": "T/C", "setting": "dose: 50.0 mg/kg/injection, schedule: Q04DX003 (ip), vehicle: saline with Tween-80", "value": "100 % of control"}
    ]},
    {"smiles": "Fc1ccc(CC(F)F)cc1", "values": [
      {"measurement": "T/C", "setting": "dose: 100.0 mg/kg/injection, schedule: Q01DX001 (ip), vehicle: saline with Tween-80", "value": "107 % of control"},
      {"measurement": "T/C", "setting": "dose: 200.0 mg/kg/injection, schedule: Q01DX001 (ip), vehicle: saline with Tween-80", "value": "98 % of control"},
      {"measurement": "T/C", "setting": "dose: 400.0 mg/kg/injection, schedule: Q01DX001 (ip), vehicle: saline with Tween-80", "value": "103 % of control"}
    ]},
    {"smiles": "CCC(=O)/C(=C\\c1ccccc1Cl)C(C)=O", "values": [
      {"measurement": "T/C", "setting": "[3]", "value": "100 % of control"},
      {"measurement": "T/C", "setting": "[5]", "value": "97 % of control"}
    ]},
    {"smiles": "N#[O+].O=[N+]([O-])O.[Co].[NH2-].[NH2-].[NH2-].[NH2-].[NH2-]", "values": [
      {"measurement": "T/C", "setting": "dose: 6.25 mg/kg/injection, schedule: Q04DX002 (ip), vehicle: saline with Tween-80", "value": "95 % of control"},
      {"measurement": "T/C", "setting": "dose: 12.5 mg/kg/injection, schedule: Q04DX002 (ip), vehicle: saline with Tween-80", "value": "88 % of control"},
      {"measurement": "T/C", "setting": "dose: 25.0 mg/kg/injection, schedule: Q04DX002 (ip), vehicle: saline with Tween-80", "value": "98 % of control"}
    ]},
    {"smiles": "Cn1ccc(=Nc2ccc(NC(=O)c3ccc(N=c4ccn(C)c5ccc([N+](=O)[O-])cc45)cc3)cc2)cc1", "values": [
      {"measurement": "T/C", "setting": "dose: 1.56 mg/kg/injection, schedule: Q01DX009 (ip), vehicle: water", "value": "106 % of control"},
      {"measurement": "T/C", "setting": "dose: 3.13 mg/kg/injection, schedule: Q01DX009 (ip), vehicle: water", "value": "112 % of control"},
      {"measurement": "T/C", "setting": "dose: 6.25 mg/kg/injection, schedule: Q01DX009 (ip), vehicle: water", "value": "124 % of control"},
      {"measurement": "T/C", "setting": "[1]", "value": "181 % of control"},
      {"measurement": "T/C", "setting": "[2]", "value": "227 % of control"}
    ]}
  ]
}
